Key:
[1] = molecular target: Sodium-dependent serotonin transporter (Homo sapiens) (UniProt P31645); test: Selectivity interaction (Enzyme panel (CEREP ligand profiling)) EUB0000328a SLC6A4; conditions: at 10 µM
[2] = molecular target: Sodium-dependent dopamine transporter (Homo sapiens, UniProt Q01959); test: Selectivity interaction (Enzyme panel (CEREP ligand profiling)) EUB0000328a SLC6A3; conditions: at 10 µM
[3] = molecular target: T1, Gamma-aminobutyric acid receptor subunit alpha-1 (Homo sapiens, UniProt P14867); test: Selectivity interaction (GPCR panel (PDSP screen)) EUB0000328a GABRA1
T1 sequence (P14867 whole entry): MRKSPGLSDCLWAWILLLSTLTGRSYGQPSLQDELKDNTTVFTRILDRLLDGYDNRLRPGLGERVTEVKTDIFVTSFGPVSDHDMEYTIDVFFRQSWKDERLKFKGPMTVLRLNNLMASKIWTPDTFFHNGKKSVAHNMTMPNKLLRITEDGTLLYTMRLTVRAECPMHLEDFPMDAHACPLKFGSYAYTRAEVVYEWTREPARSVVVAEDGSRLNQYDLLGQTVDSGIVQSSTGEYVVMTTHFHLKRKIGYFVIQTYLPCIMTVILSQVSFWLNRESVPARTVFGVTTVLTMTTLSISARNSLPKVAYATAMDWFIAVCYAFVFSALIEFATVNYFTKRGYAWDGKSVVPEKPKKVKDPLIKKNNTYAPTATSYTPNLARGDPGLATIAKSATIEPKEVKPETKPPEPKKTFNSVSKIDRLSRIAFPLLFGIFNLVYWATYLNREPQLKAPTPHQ

[4] = molecular target: Protein kinase C epsilon type (Homo sapiens) (UniProt Q02156); test: Selectivity interaction (KinomeScan (DiscoverX)) EUB0000328a PRKCE; conditions: at 1 µM
[5] = molecular target: T2, Serine/threonine-protein kinase LATS2 (Homo sapiens) (UniProt Q9NRM7); test: Selectivity interaction (KinomeScan (DiscoverX)) EUB0000328a LATS2; conditions: at 1 µM
T2 sequence (whole entry): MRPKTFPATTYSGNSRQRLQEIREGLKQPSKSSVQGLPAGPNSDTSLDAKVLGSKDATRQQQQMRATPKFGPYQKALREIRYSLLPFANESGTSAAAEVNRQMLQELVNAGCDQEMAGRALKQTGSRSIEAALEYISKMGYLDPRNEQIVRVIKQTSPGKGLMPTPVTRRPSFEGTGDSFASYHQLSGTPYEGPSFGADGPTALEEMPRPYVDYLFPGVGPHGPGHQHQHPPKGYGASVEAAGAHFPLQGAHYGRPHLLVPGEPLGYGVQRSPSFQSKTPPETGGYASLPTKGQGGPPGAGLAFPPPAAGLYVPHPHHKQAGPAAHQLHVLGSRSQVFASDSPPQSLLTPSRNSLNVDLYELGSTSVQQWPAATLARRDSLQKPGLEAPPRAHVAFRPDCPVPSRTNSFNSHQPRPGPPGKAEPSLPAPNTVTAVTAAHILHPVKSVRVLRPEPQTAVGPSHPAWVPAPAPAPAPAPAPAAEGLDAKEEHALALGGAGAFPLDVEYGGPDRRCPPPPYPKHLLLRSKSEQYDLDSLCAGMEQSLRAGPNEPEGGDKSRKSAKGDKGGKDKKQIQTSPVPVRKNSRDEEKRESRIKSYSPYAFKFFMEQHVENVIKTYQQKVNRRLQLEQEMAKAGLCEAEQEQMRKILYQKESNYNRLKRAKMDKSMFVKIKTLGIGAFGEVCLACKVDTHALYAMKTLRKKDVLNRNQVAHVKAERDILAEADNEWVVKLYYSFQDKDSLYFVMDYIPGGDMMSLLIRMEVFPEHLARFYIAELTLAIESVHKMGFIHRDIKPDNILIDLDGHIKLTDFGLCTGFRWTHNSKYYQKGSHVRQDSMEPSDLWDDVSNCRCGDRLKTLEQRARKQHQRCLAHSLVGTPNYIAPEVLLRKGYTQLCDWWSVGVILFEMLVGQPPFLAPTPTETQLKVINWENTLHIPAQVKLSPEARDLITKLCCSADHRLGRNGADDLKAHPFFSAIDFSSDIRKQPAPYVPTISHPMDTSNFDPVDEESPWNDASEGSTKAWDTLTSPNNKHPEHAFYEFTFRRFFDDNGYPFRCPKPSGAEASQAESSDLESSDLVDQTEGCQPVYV

[6] = system: Tyrosine-protein kinase ABL1 (Homo sapiens), P00519 [H396P]; test: Selectivity interaction (KinomeScan (DiscoverX)) EUB0000328a ABL1; conditions: at 1 µM
[7] = molecular target: T3, Ephrin type-B receptor 6 (Homo sapiens) (UniProt O15197); test: Selectivity interaction (KinomeScan (DiscoverX)) EUB0000326a EPHB6; conditions: Inhibition of LnCaP-FGC cell proliferation > […] µM (PMID: 28953875);, Selectivity Remarks Screened at 1 µM (in vitro, >[…]-fold less potent then probe A-485), Selectivity Source Knowledge ht
T3 sequence (whole entry): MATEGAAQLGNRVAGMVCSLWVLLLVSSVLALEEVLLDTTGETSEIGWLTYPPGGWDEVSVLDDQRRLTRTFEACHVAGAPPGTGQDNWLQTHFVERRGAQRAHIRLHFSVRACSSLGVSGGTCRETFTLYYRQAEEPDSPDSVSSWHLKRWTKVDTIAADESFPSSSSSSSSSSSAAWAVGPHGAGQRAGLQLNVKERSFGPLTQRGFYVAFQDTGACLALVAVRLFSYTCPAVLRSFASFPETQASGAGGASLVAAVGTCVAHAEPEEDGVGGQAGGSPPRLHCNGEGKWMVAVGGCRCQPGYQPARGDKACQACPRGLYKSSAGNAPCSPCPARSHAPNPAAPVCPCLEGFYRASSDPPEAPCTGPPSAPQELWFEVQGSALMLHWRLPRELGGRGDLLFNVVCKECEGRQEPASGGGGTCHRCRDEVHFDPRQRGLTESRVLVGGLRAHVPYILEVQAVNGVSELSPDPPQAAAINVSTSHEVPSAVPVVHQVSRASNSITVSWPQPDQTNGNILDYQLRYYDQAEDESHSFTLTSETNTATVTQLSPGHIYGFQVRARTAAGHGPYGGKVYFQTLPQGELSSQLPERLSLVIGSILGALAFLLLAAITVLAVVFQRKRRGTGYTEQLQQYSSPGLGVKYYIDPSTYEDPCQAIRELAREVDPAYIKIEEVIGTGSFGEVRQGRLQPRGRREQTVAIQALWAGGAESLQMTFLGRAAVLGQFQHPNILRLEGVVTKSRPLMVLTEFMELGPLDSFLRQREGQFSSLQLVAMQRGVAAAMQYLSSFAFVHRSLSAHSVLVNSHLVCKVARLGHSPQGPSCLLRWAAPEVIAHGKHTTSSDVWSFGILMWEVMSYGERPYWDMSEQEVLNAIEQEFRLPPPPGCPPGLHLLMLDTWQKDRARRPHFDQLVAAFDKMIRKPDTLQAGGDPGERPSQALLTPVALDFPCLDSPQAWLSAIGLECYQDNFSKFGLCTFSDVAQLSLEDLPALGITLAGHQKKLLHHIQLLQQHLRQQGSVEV

[8] = molecular target: Phosphatidylinositol 4,5-bisphosphate 3-kinase catalytic subunit alpha isoform (Homo sapiens, UniProt P42336); test: Selectivity interaction (KinomeScan (DiscoverX)) EUB0000326a PIK3CA; conditions: Inhibition of LnCaP-FGC cell proliferation > […] µM (PMID: 28953875);, Selectivity Remarks Screened at 1 µM (in vitro, >[…]-fold less potent then probe A-485), Selectivity Source Knowledge ht
[9] = molecular target: T1, Gamma-aminobutyric acid receptor subunit alpha-1; test: Selectivity interaction (GPCR panel (PDSP screen)) EUB0000326a GABRA1
[10] = molecular target: High affinity nerve growth factor receptor (Homo sapiens, UniProt P04629); test: Selectivity interaction (KinomeScan (DiscoverX)) EUB0000326a NTRK1; conditions: Inhibition of LnCaP-FGC cell proliferation > […] µM (PMID: 28953875);, Selectivity Remarks Screened at 1 µM (in vitro, >[…]-fold less potent then probe A-485), Selectivity Source Knowledge ht
[11] = system: Phosphatidylinositol 4,5-bisphosphate 3-kinase catalytic subunit alpha isoform (Homo sapiens), P42336 [Q546K]; test: Selectivity interaction (KinomeScan (DiscoverX)) EUB0000710a PIK3CA; conditions: at 1 µM
[12] = molecular target: Serine/threonine-protein kinase TNNI3K (Homo sapiens) (UniProt Q59H18); test: Selectivity interaction (KinomeScan (DiscoverX)) EUB0000710a TNNI3K; conditions: at 1 µM
[13] = system: Epidermal growth factor receptor (Homo sapiens), P00533 [L861Q]; test: Selectivity interaction (KinomeScan (DiscoverX)) EUB0000710a EGFR; conditions: at 1 µM
[14] = molecular target: Epithelial discoidin domain-containing receptor 1 (Homo sapiens, UniProt Q08345); test: Selectivity interaction (KinomeScan (DiscoverX)) EUB0000710a DDR1; conditions: at 1 µM
[15] = molecular target: T4, Myosin-IIIb (Homo sapiens) (UniProt Q8WXR4); test: Selectivity interaction (KinomeScan (DiscoverX)) EUB0000710a MYO3B; conditions: at 1 µM
T4 sequence (whole entry): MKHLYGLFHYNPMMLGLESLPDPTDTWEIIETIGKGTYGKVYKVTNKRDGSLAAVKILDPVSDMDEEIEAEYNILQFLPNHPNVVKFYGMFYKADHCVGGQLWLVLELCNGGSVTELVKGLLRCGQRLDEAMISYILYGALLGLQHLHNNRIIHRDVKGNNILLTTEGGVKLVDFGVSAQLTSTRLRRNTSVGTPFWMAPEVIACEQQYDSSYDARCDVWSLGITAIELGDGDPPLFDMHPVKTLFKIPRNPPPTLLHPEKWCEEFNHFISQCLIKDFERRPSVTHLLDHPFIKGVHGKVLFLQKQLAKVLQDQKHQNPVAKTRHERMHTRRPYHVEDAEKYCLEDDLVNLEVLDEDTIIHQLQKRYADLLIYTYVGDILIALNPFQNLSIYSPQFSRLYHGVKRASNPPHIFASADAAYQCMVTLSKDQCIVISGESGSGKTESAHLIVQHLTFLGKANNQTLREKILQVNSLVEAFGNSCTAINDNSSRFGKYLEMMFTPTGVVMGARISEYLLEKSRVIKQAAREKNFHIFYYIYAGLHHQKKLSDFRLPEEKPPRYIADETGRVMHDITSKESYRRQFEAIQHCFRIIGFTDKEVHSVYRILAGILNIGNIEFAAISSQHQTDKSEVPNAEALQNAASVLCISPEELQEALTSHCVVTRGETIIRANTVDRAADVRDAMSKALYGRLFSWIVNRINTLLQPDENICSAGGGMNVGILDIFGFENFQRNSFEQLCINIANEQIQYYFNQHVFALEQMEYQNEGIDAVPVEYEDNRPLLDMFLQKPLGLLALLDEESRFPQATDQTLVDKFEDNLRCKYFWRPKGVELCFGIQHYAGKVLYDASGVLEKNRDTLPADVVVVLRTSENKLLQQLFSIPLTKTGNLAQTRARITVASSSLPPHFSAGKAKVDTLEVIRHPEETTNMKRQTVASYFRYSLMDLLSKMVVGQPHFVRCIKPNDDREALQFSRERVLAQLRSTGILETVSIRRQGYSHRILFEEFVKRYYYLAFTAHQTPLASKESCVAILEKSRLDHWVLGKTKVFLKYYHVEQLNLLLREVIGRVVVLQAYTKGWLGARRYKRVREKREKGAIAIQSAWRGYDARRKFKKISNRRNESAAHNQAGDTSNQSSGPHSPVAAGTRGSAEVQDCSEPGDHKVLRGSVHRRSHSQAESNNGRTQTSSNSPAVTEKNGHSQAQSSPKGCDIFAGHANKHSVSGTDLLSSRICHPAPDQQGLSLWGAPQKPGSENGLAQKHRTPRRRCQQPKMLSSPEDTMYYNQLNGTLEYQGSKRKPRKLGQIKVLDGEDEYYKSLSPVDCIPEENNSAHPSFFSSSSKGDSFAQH

[16] = molecular target: T5, Serine/threonine-protein kinase TAO3 (Homo sapiens) (UniProt Q9H2K8); test: Selectivity interaction (KinomeScan (DiscoverX)) EUB0000710a TAOK3; conditions: at 1 µM
T5 sequence (whole entry): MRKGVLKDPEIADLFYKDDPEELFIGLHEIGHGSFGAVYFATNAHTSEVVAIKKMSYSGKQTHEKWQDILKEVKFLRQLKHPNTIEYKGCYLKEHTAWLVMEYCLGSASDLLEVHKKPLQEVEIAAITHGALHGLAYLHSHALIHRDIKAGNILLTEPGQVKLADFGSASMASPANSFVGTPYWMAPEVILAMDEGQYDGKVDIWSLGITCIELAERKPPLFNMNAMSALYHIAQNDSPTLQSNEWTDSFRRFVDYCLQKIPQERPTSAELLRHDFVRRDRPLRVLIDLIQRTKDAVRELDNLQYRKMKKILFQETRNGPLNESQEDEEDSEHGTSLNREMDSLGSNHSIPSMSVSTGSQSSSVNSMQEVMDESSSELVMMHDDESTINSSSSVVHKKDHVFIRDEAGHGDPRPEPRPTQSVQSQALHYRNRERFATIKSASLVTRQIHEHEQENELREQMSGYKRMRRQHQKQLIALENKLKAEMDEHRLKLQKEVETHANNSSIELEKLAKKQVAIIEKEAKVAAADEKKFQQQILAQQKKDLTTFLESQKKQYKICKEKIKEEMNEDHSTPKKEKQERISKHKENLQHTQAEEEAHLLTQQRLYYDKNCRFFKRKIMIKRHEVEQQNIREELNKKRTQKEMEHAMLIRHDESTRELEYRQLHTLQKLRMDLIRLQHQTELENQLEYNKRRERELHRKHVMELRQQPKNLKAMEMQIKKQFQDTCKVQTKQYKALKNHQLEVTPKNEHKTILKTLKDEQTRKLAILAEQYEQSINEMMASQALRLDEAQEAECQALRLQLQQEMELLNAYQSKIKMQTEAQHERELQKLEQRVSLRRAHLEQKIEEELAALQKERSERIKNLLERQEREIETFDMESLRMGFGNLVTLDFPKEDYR

[17] = molecular target: 5-hydroxytryptamine receptor 2B (Homo sapiens, UniProt P41595); test: Selectivity interaction (GPCR panel (PDSP screen)) EUB0000710a HTR2B
Sequence of 5-hydroxytryptamine receptor 2B (P41595 whole entry): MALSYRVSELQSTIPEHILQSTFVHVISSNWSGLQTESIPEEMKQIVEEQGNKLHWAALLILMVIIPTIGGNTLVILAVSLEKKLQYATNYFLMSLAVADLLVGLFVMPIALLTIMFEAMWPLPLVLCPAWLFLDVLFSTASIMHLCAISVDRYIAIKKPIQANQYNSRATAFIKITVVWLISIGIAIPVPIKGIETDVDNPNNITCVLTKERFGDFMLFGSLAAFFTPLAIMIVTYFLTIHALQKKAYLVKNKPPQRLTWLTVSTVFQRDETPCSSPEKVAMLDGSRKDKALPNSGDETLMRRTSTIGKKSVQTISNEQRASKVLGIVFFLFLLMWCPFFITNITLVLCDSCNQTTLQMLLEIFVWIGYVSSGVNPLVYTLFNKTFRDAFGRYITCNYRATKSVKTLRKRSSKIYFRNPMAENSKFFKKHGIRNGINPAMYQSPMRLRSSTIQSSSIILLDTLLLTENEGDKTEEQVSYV

Sequence of High affinity nerve growth factor receptor (P04629 33-796 limits assumed): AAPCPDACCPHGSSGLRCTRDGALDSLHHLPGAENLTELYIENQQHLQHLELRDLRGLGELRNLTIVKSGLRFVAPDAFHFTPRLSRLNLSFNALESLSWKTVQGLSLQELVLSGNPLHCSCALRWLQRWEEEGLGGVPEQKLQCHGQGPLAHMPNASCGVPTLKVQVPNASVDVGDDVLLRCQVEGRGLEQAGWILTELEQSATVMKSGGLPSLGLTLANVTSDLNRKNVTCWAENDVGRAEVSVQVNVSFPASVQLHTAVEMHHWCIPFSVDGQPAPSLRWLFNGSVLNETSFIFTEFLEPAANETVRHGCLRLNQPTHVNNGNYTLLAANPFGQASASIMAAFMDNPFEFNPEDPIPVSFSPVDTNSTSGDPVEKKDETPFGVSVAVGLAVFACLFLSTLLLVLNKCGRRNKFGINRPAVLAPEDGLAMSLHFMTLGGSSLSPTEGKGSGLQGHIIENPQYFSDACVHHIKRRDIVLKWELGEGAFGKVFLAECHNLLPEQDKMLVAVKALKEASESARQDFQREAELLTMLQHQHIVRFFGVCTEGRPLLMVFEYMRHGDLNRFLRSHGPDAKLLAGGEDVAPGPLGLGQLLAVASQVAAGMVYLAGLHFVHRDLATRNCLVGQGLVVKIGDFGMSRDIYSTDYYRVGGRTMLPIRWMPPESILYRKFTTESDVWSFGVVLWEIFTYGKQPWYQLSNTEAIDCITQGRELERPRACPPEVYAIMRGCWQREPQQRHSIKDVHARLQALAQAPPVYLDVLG
Sequence of Epidermal growth factor receptor (Homo sapiens), P00533 [L861Q] (P00533 whole entry L861Q, the tested form may be a part): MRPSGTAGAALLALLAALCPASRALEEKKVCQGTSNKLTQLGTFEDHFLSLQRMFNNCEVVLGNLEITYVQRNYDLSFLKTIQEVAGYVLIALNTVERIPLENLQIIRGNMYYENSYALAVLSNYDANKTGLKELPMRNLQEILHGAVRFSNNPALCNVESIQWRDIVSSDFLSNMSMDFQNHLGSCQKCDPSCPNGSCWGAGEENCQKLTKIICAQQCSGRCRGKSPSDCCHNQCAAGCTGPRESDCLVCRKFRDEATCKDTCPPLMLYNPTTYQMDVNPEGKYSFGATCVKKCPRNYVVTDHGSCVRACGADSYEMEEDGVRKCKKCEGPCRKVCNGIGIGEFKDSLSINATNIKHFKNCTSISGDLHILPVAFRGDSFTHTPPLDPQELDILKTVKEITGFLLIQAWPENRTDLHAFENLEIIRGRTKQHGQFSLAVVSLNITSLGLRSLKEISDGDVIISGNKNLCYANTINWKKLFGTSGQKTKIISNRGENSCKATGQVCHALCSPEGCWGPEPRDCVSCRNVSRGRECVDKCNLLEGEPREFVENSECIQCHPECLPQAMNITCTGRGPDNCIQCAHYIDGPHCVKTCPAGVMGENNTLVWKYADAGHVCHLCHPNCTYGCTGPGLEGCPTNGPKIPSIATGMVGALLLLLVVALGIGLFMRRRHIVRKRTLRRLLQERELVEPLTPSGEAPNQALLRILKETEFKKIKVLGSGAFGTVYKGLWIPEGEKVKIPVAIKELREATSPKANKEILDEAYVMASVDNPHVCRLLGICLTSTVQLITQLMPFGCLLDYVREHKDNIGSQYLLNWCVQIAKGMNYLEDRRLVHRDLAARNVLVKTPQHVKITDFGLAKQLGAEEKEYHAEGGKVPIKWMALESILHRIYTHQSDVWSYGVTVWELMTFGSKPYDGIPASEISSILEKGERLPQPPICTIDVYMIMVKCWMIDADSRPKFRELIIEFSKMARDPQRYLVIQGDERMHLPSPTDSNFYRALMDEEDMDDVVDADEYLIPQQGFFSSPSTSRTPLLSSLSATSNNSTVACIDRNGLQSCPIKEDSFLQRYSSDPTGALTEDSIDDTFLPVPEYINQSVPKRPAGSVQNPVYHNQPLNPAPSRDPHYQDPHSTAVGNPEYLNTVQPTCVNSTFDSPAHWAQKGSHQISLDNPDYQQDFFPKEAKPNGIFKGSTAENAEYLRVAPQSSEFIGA
Sequence of Sodium-dependent serotonin transporter (Homo sapiens) (P31645 whole entry, looked up): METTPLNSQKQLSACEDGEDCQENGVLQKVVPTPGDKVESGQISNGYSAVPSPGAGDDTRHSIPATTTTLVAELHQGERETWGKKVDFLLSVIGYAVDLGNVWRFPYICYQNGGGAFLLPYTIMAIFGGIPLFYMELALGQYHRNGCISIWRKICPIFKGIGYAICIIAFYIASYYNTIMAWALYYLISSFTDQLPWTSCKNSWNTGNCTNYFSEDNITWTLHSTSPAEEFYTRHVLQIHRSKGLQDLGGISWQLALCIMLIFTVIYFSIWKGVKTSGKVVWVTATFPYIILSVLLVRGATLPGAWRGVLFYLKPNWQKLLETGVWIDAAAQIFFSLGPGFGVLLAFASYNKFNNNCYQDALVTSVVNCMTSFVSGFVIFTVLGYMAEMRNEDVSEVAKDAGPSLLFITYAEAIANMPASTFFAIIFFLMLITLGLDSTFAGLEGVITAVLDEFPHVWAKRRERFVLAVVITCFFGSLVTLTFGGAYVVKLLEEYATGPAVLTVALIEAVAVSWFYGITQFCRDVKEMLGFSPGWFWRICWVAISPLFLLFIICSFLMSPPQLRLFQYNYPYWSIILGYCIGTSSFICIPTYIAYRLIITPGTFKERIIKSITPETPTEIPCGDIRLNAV
Sequence of Epithelial discoidin domain-containing receptor 1 (Q08345 whole entry, the tested form may be a part): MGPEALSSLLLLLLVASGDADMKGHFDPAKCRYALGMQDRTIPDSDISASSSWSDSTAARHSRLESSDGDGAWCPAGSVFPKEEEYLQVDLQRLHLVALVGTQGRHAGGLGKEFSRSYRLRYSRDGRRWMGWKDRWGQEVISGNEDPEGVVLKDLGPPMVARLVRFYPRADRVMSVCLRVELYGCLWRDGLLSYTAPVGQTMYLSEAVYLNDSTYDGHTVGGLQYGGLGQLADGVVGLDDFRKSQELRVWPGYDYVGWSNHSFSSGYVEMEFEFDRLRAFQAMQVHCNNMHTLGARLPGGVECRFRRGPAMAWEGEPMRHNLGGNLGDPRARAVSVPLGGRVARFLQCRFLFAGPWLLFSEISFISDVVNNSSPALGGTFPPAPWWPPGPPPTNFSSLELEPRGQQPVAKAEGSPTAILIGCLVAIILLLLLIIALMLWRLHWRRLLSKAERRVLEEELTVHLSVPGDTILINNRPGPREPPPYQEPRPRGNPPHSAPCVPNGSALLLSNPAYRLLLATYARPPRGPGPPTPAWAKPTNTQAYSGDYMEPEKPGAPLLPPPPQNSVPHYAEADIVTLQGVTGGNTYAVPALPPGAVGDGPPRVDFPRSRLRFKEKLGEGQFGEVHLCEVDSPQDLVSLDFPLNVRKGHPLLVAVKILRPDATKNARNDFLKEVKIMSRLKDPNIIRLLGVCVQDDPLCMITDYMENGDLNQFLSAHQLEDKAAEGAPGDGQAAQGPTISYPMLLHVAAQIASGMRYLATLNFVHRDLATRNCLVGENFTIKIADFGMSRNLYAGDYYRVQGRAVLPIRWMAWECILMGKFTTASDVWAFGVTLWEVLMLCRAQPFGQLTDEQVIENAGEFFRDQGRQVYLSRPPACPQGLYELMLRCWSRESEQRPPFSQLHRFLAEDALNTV
Sequence of Protein kinase C epsilon type (Homo sapiens) (Q02156 whole entry): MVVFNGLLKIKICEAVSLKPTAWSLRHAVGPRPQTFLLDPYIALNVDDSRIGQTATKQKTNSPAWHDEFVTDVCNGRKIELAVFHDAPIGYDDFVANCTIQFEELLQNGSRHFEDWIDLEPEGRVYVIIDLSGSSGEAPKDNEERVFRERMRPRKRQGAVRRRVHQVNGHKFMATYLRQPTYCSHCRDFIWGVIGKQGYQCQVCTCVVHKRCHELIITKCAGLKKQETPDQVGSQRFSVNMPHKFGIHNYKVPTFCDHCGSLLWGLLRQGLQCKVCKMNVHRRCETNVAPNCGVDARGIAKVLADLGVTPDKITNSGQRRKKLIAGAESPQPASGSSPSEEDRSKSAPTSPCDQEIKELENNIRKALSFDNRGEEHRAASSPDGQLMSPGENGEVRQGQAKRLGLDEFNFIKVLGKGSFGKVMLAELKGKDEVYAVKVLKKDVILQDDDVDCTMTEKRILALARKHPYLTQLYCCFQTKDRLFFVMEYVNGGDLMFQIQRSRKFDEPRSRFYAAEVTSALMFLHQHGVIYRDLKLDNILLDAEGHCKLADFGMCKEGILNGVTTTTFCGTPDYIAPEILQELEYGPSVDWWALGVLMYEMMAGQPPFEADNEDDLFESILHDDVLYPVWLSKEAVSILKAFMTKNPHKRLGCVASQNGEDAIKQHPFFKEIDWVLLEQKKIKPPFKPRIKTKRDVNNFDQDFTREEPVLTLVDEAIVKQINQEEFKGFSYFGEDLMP

## CNC(=O)Nc1ccc2c(c1)CC[C@@]21OC(=O)N(CC(=O)N(Cc2ccc(F)cc2)[C@@H](C)C(F)(F)F)C1=O [A-485]
[1]
  % of inhibition: 99%
[2]
  % of inhibition: 94%
[3]
  Ki: 1110 nM
[4]
  % of control: 22%
[5]
  % of control: 47%
[6]
  % of control: 49%

## CNC(=O)Nc1ccc2c(c1)[C@@]1(CC2)OC(=O)N(CC(=O)N(Cc2ccc(F)cc2)[C@@H](C)C(F)(F)F)C1=O [A-486]
[7]
  % of control: 0%
[8]
  % of control: 28%
[9]
  Ki: 2580 nM
[10]
  % of control: 41%

## Cc1cnc(-c2cc(Cl)ccc2F)cc1-n1c(=O)n(CC(N)=O)c2ccccc21 [Al11]
[11]
  % of control: 41%
[12]
  % of control: 51%
[13]
  % of control: 39.5%
[14]
  % of control: 47%
[15]
  % of control: 49%
[16]
  % of control: 54%
[17]
  Ki: 1880 nM
